Experimental data published in patent publication US20230084927A1, “GLUCOSE UPTAKE INHIBITORS AND USES THEREOF” (METABOMED LTD., priority 2019, published 2023).

How the values were obtained:
[1] = tested on: SDH-KO-HRAS cells (SDHB-deficient); test: Cellular / differential toxicity assay (CellTiter-Glo, 3 days); assay type: cell-based, murine; settings: Mus musculus, 72 h, toxicity, SDH-KO cells, 3 days, CellTiter-Glo; read-out: EC50 (uM) SDH-KO-HTAS-C17
Description: (§1) Identification of compounds that target specifically SDH-deficient cells was done by screening a library of small-molecule by using a differential toxicity screen with SDHB-proficient vs. SDHB-deficient cells (the […] cells were described in Cardaci 2015).
(§2) Cells Used for the Differential Assays: SDH-WT; SDH-KO-HRAS
(§3) Cell Culture Conditions: • Medium: DMEM-F12 medium+1 mM Glutamine+3% FBS • Plates: 96 well plate—Black, clear flat bottom • Incubation time: 3 days • Compound concentration: 10 point dilution starting from 10 uM to 0.0065 uM or a lower range when needed. • Viability assay at the end of incubation: Celltiter-Glo (CTG) from Promega.
(§4) Protocol: • Day 1: Plate cells in 96 well plate together with the appropriate concentration of compound.
(§5) Incubate for 3 days at 37° C. in 5% CO2 tissue culture incubator. • Day 4: Check viability of cells by adding CTG reagent and read luminescence in plate reader
(§6) SDH-WT and SDH-KO cells were grown in DMEM F12 supplemented with 1 mM Glutamine+3% FBS were treated with different concentrations of the indicated compounds in FIG. 11. Cell viability was determined 72 hours later by CellTiter Glue reagent (Promega), the luminescence was measured with ClarioStar reader (BMG) and the EC50s were calculated by Prism.
as §6, with “compounds.” for “compounds in FIG. 11.”
(§7) The cells were grown in DMEM F12 supplemented with 1 mM Glutamine+3% FBS were treated with different concentrations of the indicated compounds. Cell viability was determined 72 hours later by CellTiter Glue reagent (Promega), the luminescence was measured with ClarioStar reader (BMG) and the EC50s were calculated by Prism. Murine SDHB-WT/KO, HRAS transformed isogenic pair (FIG. 12A); UOK269, Human Tumor-derived SDHB-deficient RCC in their WT counterpart with re-expression of SDHB (FIG. 12B); and ACHN, RCC cells, and their SDHB-KO (SDHB CRISPRed out) isogenic cells (FIG. 12C).

SDH-WT cells = test: as above; assay type: cell-based, murine; settings: Mus musculus, 72 h, toxicity, SDH-WT cells, 3 days, CellTiter-Glo; read-out: EC50 (uM) SDH-WT
Description: as §1, §2, §3, §4, §5, §6
as §6, with “compounds.” for “compounds in FIG. 11.”
as §7

| SMILES | EC50 [1] [µM] | EC50 (SDH-WT cells) [µM] |
| --- | --- | --- |
| COc1ccc(CCN(C)c2ncnc3c2sc2nc4c(cc23)COC(C)(C)C4)cc1F [Compound 100] | 3 to 10 | > 10 |
| CCOC1CCc2nc3sc4c(NCCc5ccc(OC)c(F)c5)ncnc4c3cc2C1 (centres unmarked) [Compound 101] | > 10 | > 10 |
| COc1cc(CCNc2ncnc3c2sc2nc4c(cc23)COC(C)(C)C4)cc(OC)c1 [Compound 102] | 3 to 10 | > 10 |
| COc1cccc(CCNc2ncnc3c2sc2nc4c(cc23)COC(C)(C)C4)c1OC [Compound 103] | > 10 | > 10 |
| COc1ccc(CCNc2ncnc3c2sc2nc(C=C(C)C)c(CCl)cc23)cc1F [Compound 104] | 1 to 3 | 3 to 10 |
| COc1ccc(C2CCN(c3ncnc4c3sc3nc5c(cc34)COC(C)(C)C5)C2)cc1F (centres unmarked) [Compound 105] | 3 to 10 | 3 to 10 |
| COc1ccc(CCNc2ncnc3c2sc2nc4c(cc23)CN(C)CC4)cc1F [Compound 106, N-(3-Fluoro-4-methoxyphenethyl)-9-methyl-7,8,9,10-tetrahydropyrimido[4′,5′:4,5]-thieno[2,3-b][1,6]naphthyridin-4-amine] | 3 to 10 | 3 to 10 |
| COc1ccc(CCNc2ncnc3c2sc2nc4c(cc23)CCC4)cc1F [Compound 108, N-(3-Fluoro-4-methoxyphenethyl)-8,9-dihydro-7H-cyclopenta[5′,6′]pyrido-[3′,2′:4,5]thieno[3,2-d]pyrimidin-4-amine] | > 10 | 1 to 3 |
| COc1ccc(CCNc2ncnc3c2sc2nc4c(cc23)CCCC4)cc1F [Compound 109, N-(3-Fluoro-4-methoxyphenethyl)-7,8,9,10-tetrahydropyrimido[4′,5′:4,5]-thieno[2,3-b]quinolin-4-amine] | > 10 | > 10 |
| COc1ccc(CCNc2ncnc3c2sc2ncccc23)cc1F [Compound 110] | 1 to 3 | > 10 |
| CC1(C)Cc2nc3sc4c(NCCC5CCCCO5)ncnc4c3cc2CO1 (centres unmarked) [Compound 112] | 3 to 10 | > 10 |
| CC1(C)Cc2nc3sc4c(NCCc5cccc(C(=O)O)c5)ncnc4c3cc2CO1 [Compound 113] | 3 to 10 | < 1 |
| CCCOc1ccc(CCNc2ncnc3c2sc2nc4c(cc23)COC(C)(C)C4)cc1OC [Compound 115] | 3 to 10 | 1 to 3 |
| CC1(C)Cc2nc3sc4c(NCCc5ccc6[nH]ccc6c5)ncnc4c3cc2CO1 [Compound 116] | 1 to 3 | 3 to 10 |
| COc1cccc(CCNc2ncnc3c2sc2nc4c(cc23)COC(C)(C)C4)c1 [Compound 117] | 3 to 10 | > 10 |
| CC1(C)Cc2nc3sc4c(NCCc5ccc(F)c(F)c5)ncnc4c3cc2CO1 [Compound 120] | > 10 | > 10 |
| COc1cc(CCNc2ncnc3c2sc2nc4c(cc23)COC(C)(C)C4)ccc1F [Compound 121] | 3 to 10 | > 10 |
| COc1ccc(CCNc2ncnc3c2sc2nc4c(cc23)COC(C)(C)C4)cc1F [Compound 122] | < 1 | > 10 |
| CC1(C)Cc2nc3sc4c(NCCc5cncnc5)ncnc4c3cc2CO1 [Compound 123] | > 10 | > 10 |
| CC1(C)Cc2nc3sc4c(NCCc5cccnc5)ncnc4c3cc2CO1 [Compound 124] | > 10 | > 10 |
| COc1ccc(CCNc2ncnc3c4c(sc23)=NC2CC(C)(C)OCC2C=4)c(OC)c1 (centres unmarked) [Compound 125] | 1 to 3 | > 10 |
| COc1ccc(CCNc2ncnc3c2sc2ncccc23)cc1OC [Compound 126] | 1 to 3 | 3 to 10 |
| CC1(C)Cc2nc3sc4c(NCCc5ccncc5)ncnc4c3cc2CO1 [Compound 127] | > 10 | > 10 |
| COc1ccccc1CCNc1ncnc2c1sc1nc3c(cc12)COC(C)(C)C3 [Compound 128] | 3 to 10 | 3 to 10 |
| COc1ccc(CCNc2ncnc3c2sc2nc4c(cc23)COC(C)(C)C4)cc1 [Compound 129] | < 1 | > 10 |
| COC(=O)c1ccc(CCNc2ncnc3c2sc2nc4c(cc23)COC(C)(C)C4)cc1 [Compound 130] | > 10 | > 10 |
| CC1(C)Cc2nc3sc4c(NCCc5ccc6c(c5)OCCO6)ncnc4c3cc2CO1 [Compound 131] | > 10 | > 10 |
| COc1ccc(Nc2ncnc3c2sc2nc4c(cc23)COC(C)(C)C4)cc1OC [Compound 132] | > 10 | > 10 |

| SMILES | EC50 [1] [µM] | EC50 (SDH-WT cells) [µM] |
| --- | --- | --- |
| CC1(C)Cc2nc3sc4c(NCCc5ccccn5)ncnc4c3cc2CO1 [Compound 133] | 3 to 10 | > 10 |
| CC(C)Nc1ncnc2c1sc1nc3c(cc12)COC(C)(C)C3 [Compound 134] | > 10 | > 10 |
| CC1(C)Cc2nc3sc4c(NCc5ccccc5)ncnc4c3cc2CO1 [Compound 135] | > 10 | > 10 |
| CC1(C)Cc2nc3sc4c(N5CCNCC5)ncnc4c3cc2CO1 [Compound 136] | > 10 | > 10 |
| CC1(C)Cc2nc3sc4c(N5CCOCC5)ncnc4c3cc2CO1 [Compound 137] | > 10 | > 10 |
| CC1(C)Cc2nc3sc4c(N5CCCCC5)ncnc4c3cc2CO1 [Compound 138] | > 10 | > 10 |
| CC1(C)Cc2nc3sc4c(NCCc5ccc(O)c(F)c5)ncnc4c3cc2CO1 [Compound 140] | 1 to 3 | 3 to 10 |
| CC1(C)Cc2nc3sc4c(NCCc5ccc(NC(N)=O)cc5)ncnc4c3cc2CO1 [Compound 141] | < 1 | > 10 |
| CNC(=O)c1ccc(CCNc2ncnc3c2sc2nc4c(cc23)COC(C)(C)C4)cc1 [Compound 142] | < 1 | 3 to 10 |
| CC1(C)Cc2nc3sc4c(NCCc5ccc(OC(N)=O)cc5)ncnc4c3cc2CO1 [Compound 143] | < 1 | > 10 |
| CC1(C)Cc2nc3sc4c(NCCc5ccc(C(N)=O)cc5)ncnc4c3cc2CO1 [Compound 144] | < 1 | > 10 |
| CN(c1ccc(CCNc2ncnc3c2sc2nc4c(cc23)COC(C)(C)C4)cc1)S(C)(=O)=O [Compound 146] | 3 to 10 | > 10 |
| CC1(C)Cc2nc3sc4c(NCCc5ccc(-c6ncco6)cc5)ncnc4c3cc2CO1 [Compound 147] | < 1 | 3 to 10 |
| CC1(C)Cc2nc3sc4c(NCCc5ccc(-c6cncs6)cc5)ncnc4c3cc2CO1 [Compound 148] | < 1 | > 10 |
| CC1(C)Cc2nc3sc4c(NCCc5ccc(-c6cnco6)cc5)ncnc4c3cc2CO1 [Compound 149] | > 10 | > 10 |
| CN(C)C(=O)c1ccc(CCNc2ncnc3c2sc2nc4c(cc23)COC(C)(C)C4)cc1 [Compound 150] | 1 to 3 | > 10 |
| CC1(C)Cc2nc3sc4c(NCCc5ccc(N)cc5)ncnc4c3cc2CO1 [Compound 151] | < 1 | 3 to 10 |
| CC1(C)Cc2nc3sc4c(NCCc5ccc(NS(C)(=O)=O)cc5)ncnc4c3cc2CO1 [Compound 152] | 3 to 10 | 3 to 10 |
| COc1ccc(CCOc2ncnc3c2sc2nc4c(cc23)COC(C)(C)C4)cc1F [Compound 153] | > 10 | > 10 |
| CC1(C)Cc2nc3sc4c(NCCc5ccc(O)cc5)ncnc4c3cc2CO1 [Compound 154] | < 1 | 3 to 10 |
| CC1(C)Cc2nc3sc4c(NCCc5ccc(N6CCCC6=O)cc5)ncnc4c3cc2CO1 [Compound 156] | 1 to 3 | > 10 |
| CC1(C)Cc2nc3sc4c(NCCc5ccc(OS(C)(=O)=O)cc5)ncnc4c3cc2CO1 [Compound 157] | > 10 | > 10 |
| CC(=O)N(C)c1ccc(CCNc2ncnc3c2sc2nc4c(cc23)COC(C)(C)C4)cc1 [Compound 158] | < 1 | > 10 |
| CC1(C)Cc2nc3sc4c(NCCc5ccc(C(=O)O)cc5)ncnc4c3cc2CO1 [Compound 159] | > 10 | > 10 |
| COc1ccc(CCN(C(C)=O)c2ncnc3c2sc2nc4c(cc23)COC(C)(C)C4)cc1F [Compound 160] | > 10 | > 10 |
| COc1ccc(CCNc2ncnc3c2sc2nc4c(cc23)COC(C)(C)C4)cc1C(F)(F)F [Compound 161] | 3 to 10 | 3 to 10 |
| COc1cccc(OC)c1CCNc1ncnc2c1sc1nc3c(cc12)COC(C)(C)C3 [Compound 162] | < 1 | < 1 |
